Measured values as given in patent US20260256792A1, “TREATMENT OF CHRONIC SPONTANEOUS URTICARIA BY ADMINISTERING (R)-2-[3-[4-AMINO-3-(2-FLUORO-4-PHENOXY-PHENYL)PYRAZOLO[3,4-D]PYRIMIDIN-1-YL]PIPERIDINE-1-CARBONYL]-4-METHYL-4-[4-(OXETAN-3-YL)PIPERAZIN-1-YL]PENT-2-ENENITRILE” (priority 2023, published 2026).

Tested on: moderate-to-severe chronic spontaneous urticaria (CSU)
Assay: Phase 2 CSU study: urticaria activity score over 7 days (UAS7)
Assay type: in vivo, human
Design: key to UAS7 Median / UAS7 Change from baseline Median / UAS7 change from baseline, Q1 / UAS7 change from baseline, Q3 / UAS7 change from baseline, Max / UAS7 Change from baseline LS Mean (SE): UAS7 points; daily UAS score ranges 0–6 points/day, over 7 days
Text: The study comprises a 12 week, randomized, double-blind, placebo-controlled, multi-center, dose-ranging efficacy and safety phase, followed by a 40 week open label extension (OLE) phase (see FIG. 1). The study consists of three phases and an optional OLE phase. […] Clinically, CSU is characterized by the spontaneous and recurrent appearance of pruritic hives. The proposed primary endpoints were the UAS7 at Week 12 in EU and EU reference countries and the ISS7 in the US. Regardless of where a participant was from, all assessments were the same. The UAS7 score is a composite score containing both the HSS7 and the ISS7. This allowed a global assessment of the two key components of urticaria: hives and itch. […] The UAS is a validated PRO measure. […] The daily UAS scores range from 0 to 6 point/day. […] Patients were to complete the UAS using the e-diary. […] The following secondary endpoints were to be analyzed using the same approach as for the primary endpoint: • Change from baseline in UAS7 at Week 4 • Change from baseline in UAS7 at Week 12 (for US and US reference countries) • Change from baseline in ISS7 at Week 12 (except US and US reference countries) • Change from baseline in HSS7 at Week 12 The following responder secondary endpoints were to be analyzed using the Cochran-Mantel-Haenszel test adjusted by region: • Proportion of participants with UAS7<6 at Week 12 • Proportion of participants with UAS7=0 at Week 12 Participants who received selected prohibited medications and/or rescue medications were to be considered as non-responders for time points after the medication usage. For other participants, all available data including those collected during the off-treatment period were to be used to determine the responder/non-responder status. Missing data were to be considered as non-responders.

[1] = Week 2, 400 mg TID, ITT population
[2] = Week 2, 400 mg TID, Omalizumab-Naïve
[3] = Week 2, 400 mg TID, Prior Omalizumab Use
[4] = Week 2, 400 mg TID, omalizumab-naive participants
[5] = Week 3, 400 mg BID, ITT population
[6] = Week 3, 400 mg BID, Omalizumab-Naïve
[7] = Week 3, 400 mg BID, Prior Omalizumab Use
[8] = Week 3, 400 mg BID, omalizumab-naive participants
[9] = Week 3, 400 mg QPM, ITT population
[10] = Week 3, 400 mg QPM, Omalizumab-Naïve
[11] = Week 3, 400 mg QPM, Prior Omalizumab Use
[12] = Week 3, 400 mg QPM, omalizumab-naive participants
[13] = Week 3, 400 mg TID, ITT population
[14] = Week 3, 400 mg TID, Omalizumab-Naïve

## CC(C)(C=C(C#N)C(=O)N1CCC[C@@H](n2nc(-c3ccc(Oc4ccccc4)cc3F)c3c(N)ncnc32)C1)N1CCN(C2COC2)CC1 [rilzabrutinib, (R)-2-[3-[4-amino-3-(2-fluoro-4-phenoxy-phenyl)pyrazolo[3,4-d]pyrimidin-1-yl]piperidine-1-carbonyl]-4-methyl-4-[4-(oxetan-3-yl)piperazin-1-yl]pent-2-enenitrile]
[1]
  OR for rilzabrutinib vs. placebo, UAS7 reduction of 10 points or more: 5.982
  RRD (%) for rilzabrutinib vs. placebo, UAS7 reduction of 10 points or more: 40.6 %
  Responder, UAS7 reduction from baseline of 10 points or more: 28 (68.3) n (%)
[2]
  UAS7 Change from baseline Mean (SD): −13.69 (11.66)
  UAS7 Change from baseline Median: −11.00
  UAS7 Mean (SD): 15.65 (10.66)
  UAS7 Median: 14.00
  UAS7 Percent change from baseline Mean (SD): −45.70 (36.18) %
  UAS7 Percent change from baseline Median: −46.67%
[3]
  UAS7 Change from baseline Mean (SD): −24.69 (11.86)
  UAS7 Change from baseline Median: −22.50
  UAS7 Mean (SD): 8.33 (9.77)
  UAS7 Median: 5.50
  UAS7 Percent change from baseline Mean (SD): −75.38 (23.12) %
  UAS7 Percent change from baseline Median: −73.96%
[4]
  Non-responder, UAS7 reduction from baseline of 10 points or more: 13 (37.1) n (%)
  OR for rilzabrutinib vs. placebo, UAS7 reduction of 10 points or more: 5.505
  RRD (%) for rilzabrutinib vs. placebo, UAS7 reduction of 10 points or more: 39.0 %
  Responder, UAS7 reduction from baseline of 10 points or more: 22 (62.9) n (%)
[5]
  Non-responder, UAS7 reduction from baseline of 10 points or more: 20 (48.8) n (%)
  OR for rilzabrutinib vs. placebo, UAS7 reduction of 10 points or more: 2.109
  RRD (%) for rilzabrutinib vs. placebo, UAS7 reduction of 10 points or more: 18.0 %
  Responder, UAS7 reduction from baseline of 10 points or more: 21 (51.2) n (%)
[6]
  UAS7 Change from baseline Mean (SD): −12.02 (10.63)
  UAS7 Change from baseline Median: −9.00
  UAS7 Mean (SD): 17.71 (11.91)
  UAS7 Median: 16.80
  UAS7 Percent change from baseline Mean (SD): −41.11 (35.05) %
  UAS7 Percent change from baseline Median: −32.14%
[7]
  UAS7 Change from baseline Mean (SD): −15.81 (16.39)
  UAS7 Change from baseline Median: −15.00
  UAS7 Mean (SD): 17.19 (13.86)
  UAS7 Median: 18.58
  UAS7 Percent change from baseline Mean (SD): −44.47 (44.78) %
  UAS7 Percent change from baseline Median: −41.73%
[8]
  Non-responder, UAS7 reduction from baseline of 10 points or more: 18 (51.4) n (%)
  OR for rilzabrutinib vs. placebo, UAS7 reduction of 10 points or more: 2.057
  RRD (%) for rilzabrutinib vs. placebo, UAS7 reduction of 10 points or more: 17.2 %
  Responder, UAS7 reduction from baseline of 10 points or more: 17 (48.6) n (%)
[9]
  Non-responder, UAS7 reduction from baseline of 10 points or more: 22 (57.9) n (%)
  OR for rilzabrutinib vs. placebo, UAS7 reduction of 10 points or more: 1.663
  RRD (%) for rilzabrutinib vs. placebo, UAS7 reduction of 10 points or more: 11.7 %
  Responder, UAS7 reduction from baseline of 10 points or more: 16 (42.1) n (%)
[10]
  UAS7 Change from baseline Mean (SD): −9.10 (8.78)
  UAS7 Change from baseline Median: −7.00
  UAS7 Mean (SD): 22.01 (9.00)
  UAS7 Median: 22.00
  UAS7 Percent change from baseline Mean (SD): −28.09 (25.63) %
  UAS7 Percent change from baseline Median: −26.67%
[11]
  UAS7 Change from baseline Mean (SD): −22.00 (NC)
  UAS7 Change from baseline Median: −22.00
  UAS7 Mean (SD): 19.00 (NC)
  UAS7 Median: 19.00
  UAS7 Percent change from baseline Mean (SD): −53.66 (NC) %
  UAS7 Percent change from baseline Median: −53.66%
[12]
  Non-responder, UAS7 reduction from baseline of 10 points or more: 22 (59.5) n (%)
  OR for rilzabrutinib vs. placebo, UAS7 reduction of 10 points or more: 1.665
  RRD (%) for rilzabrutinib vs. placebo, UAS7 reduction of 10 points or more: 11.4 %
  Responder, UAS7 reduction from baseline of 10 points or more: 15 (40.5) n (%)
[13]
  Non-responder, UAS7 reduction from baseline of 10 points or more: 14 (34.1) n (%)
  OR for rilzabrutinib vs. placebo, UAS7 reduction of 10 points or more: 3.444
  RRD (%) for rilzabrutinib vs. placebo, UAS7 reduction of 10 points or more: 31.4 %
  Responder, UAS7 reduction from baseline of 10 points or more: 27 (65.9) n (%)
[14]
  UAS7 Change from baseline Mean (SD): −13.97 (12.14)
  UAS7 Change from baseline Median: −14.00
  UAS7 Mean (SD): 15.37 (9.87)
  UAS7 Median: 14.00
